From PubChem BioAssay AID1241 (SRMLSC, 2008) come the findings set out here.

This assay in a line: compounds inducing NF-kB luciferase expression – cell-based, SH-SY5Y, dose response (AID 1241). Conditions: SH-SY5Y NF-kB promoter luciferase reporter, fold induction.
For the compound `Cc1ccc(-c2nnc(-c3ccccc3)o2)cc1`, the EC50 is 3.44 µM. With `c1ccc(-c2ncc(-c3ccn[nH]3)s2)cc1`, the EC50 is 2.32 µM. On to `COc1cccc(/C=N/Nc2nccnc2Cl)c1O`, for which the concentration for a half-maximal effect (EC50) is 2.17 µM.

On to `O=C(Nc1ccc2c(c1)OCO2)c1ccc(Br)s1`, for which the EC50 was 4.22 µM. Take `Cc1ccnc(NS(=O)(=O)c2ccc(NC(=O)c3ccc([N+](=O)[O-])s3)cc2)n1`: the 50% effective concentration (EC50) is 5.77 µM. For `CN=c1scc(C)n1/N=C/c1ccc2c(c1)OCO2`, the EC50 was 0.129 µM.

As for `Clc1ccc(Nc2nc(-c3cccs3)cs2)nc1`, the concentration giving a half-maximal response (EC50) was 0.686 µM.

In the case of `Cc1ccc(NC(=O)COc2ccccc2C=O)cc1Cl`, the concentration giving a half-maximal response (EC50) is 3.88 µM. On to `CCN(CC)c1ccc(NC(=O)c2ccccc2F)cc1`, for which the EC50 was 7.39 µM. As for `CC(=O)Nc1ccc2oc(-c3cc(F)c(F)cc3Cl)nc2c1`, the EC50 was 0.817 µM. Regarding `CCc1ccc(C2=NN(S(C)(=O)=O)C(c3cccs3)C2)cc1` (centres undefined), the 50% effective concentration (EC50) is 2.85 µM.

With `O=C(Nc1ccccc1O)c1ccc(NS(=O)(=O)c2cccc3cccnc23)cc1`, the EC50 was 21.9 µM.

`C(=N\Nc1nc2ccccc2s1)/c1ccco1`: the concentration for a half-maximal effect (EC50) was 2.32 µM. Take `COC(=O)CSc1nc2cc(C)ccc2cc1C#N`: the EC50 was 6.53 µM.

In the case of `COc1ccc(/C=N/Nc2nc3ccccc3o2)cc1O`, the EC50 was 2.14 µM. With `COc1ccc(-c2nc3ccc([N+](=O)[O-])cc3[nH]2)cc1`, the concentration giving a half-maximal response (EC50) is 1.66 µM.

As for `O=C(NCc1cccnc1)c1ccc([N+](=O)[O-])o1`, the EC50 is 2.81 µM.

With `Cc1ccc(C(=O)/C=C/Nc2ccc3c(c2)OCO3)cc1`, the concentration giving a half-maximal response (EC50) is 0.896 µM.

Turning to `Clc1ccc2nc(N3CCCCC3)[nH]c2c1`, the concentration for a half-maximal effect (EC50) is 7.79 µM. For `COc1ccc(-c2csc(-c3ccccc3)n2)c(OC)c1`, the EC50 is 6.74 µM. On to `O=C(Nc1ccc(Cl)c(Cl)c1)Nc1ccccc1C(=O)O`, for which the concentration for a half-maximal effect (EC50) is 1.67 µM. As for `Oc1ccccc1-c1cc(-c2ccc3c(c2)OCCO3)n[nH]1`, the EC50 was 0.639 µM. Regarding `Cc1ccc(/C=C2\Sc3ccccc3C2=O)s1`, the half-maximal effective concentration (EC50) is 5.98 µM. The figure for `CN1CCN(Cn2cc(/C=C/C(=O)c3ccccc3)c3ccccc32)CC1` is 3.61 µM; for `Fc1ccccc1OCCSc1nnnn1-c1ccccc1` it is 1.24 µM. Regarding `COc1ccc(/C=C/c2nc3ccccc3n2Cc2ccc(OC)c(OC)c2)cc1`, the EC50 was 0.943 µM.

Turning to `Cc1ccc(-c2nc3cc(N)ccc3o2)cc1`, the half-maximal effective concentration (EC50) is 2.17 µM. With `Cc1nn(C)cc1/C=C/C(=O)c1ccccc1`, the EC50 was 2.75 µM. As for `COc1ccc(C(=O)Nc2cc(OC)nc(OC)n2)cc1`, the EC50 is 12 µM. For `CC(C)Oc1ccc(C(=O)NC2=NCCS2)cc1`, the concentration giving a half-maximal response (EC50) is 1.87 µM. With `CC(/C=N/Nc1nc2ccccc2[nH]1)=C\c1ccccc1`, the concentration for a half-maximal effect (EC50) is 4.16 µM.

As for `O=C(NC1=NCCS1)c1csc2ccccc12`, the EC50 is 17.3 µM. Consider `COc1ccc(-c2cc(-c3ccccc3O)[nH]n2)cc1`, for which the EC50 is 0.968 µM. Take `O=C1C(c2cc(=O)c3ccccc3[nH]2)=C(O)c2ccccc21`: the EC50 is 4.98 µM.

For `O=C1CCOc2cc(OCc3ccccc3)ccc21`, the EC50 was 0.824 µM. The figure for `COC(=O)c1sc2nc3c(cc2c1N)CCCC3` is 4.06 µM; for `C(=N\Nc1nc2ccccc2s1)/c1cccs1` it is 0.887 µM.

Take `Cc1ccc(NC(=O)N2CCc3ccccc32)cc1`: the half-maximal effective concentration (EC50) was 0.763 µM.

As to `Nc1ccc(-c2nc3cc(N)ccc3s2)cc1`, the EC50 was 1.1 µM. As for `COc1cccc(CNc2cnc3ccccc3c2)c1O`, the half-maximal effective concentration (EC50) was 13.9 µM. On to `COc1cccc2sc(N(C)c3ccccc3)nc12`, for which the EC50 was 2.67 µM.

As for `CN(C)S(=O)(=O)Oc1cccc(C(=O)Nc2ccc(Cl)cc2)c1`, the EC50 was 8.78 µM. In the case of `Cc1nn(-c2ccccc2)c(Cl)c1/C=N/Nc1ccc(Cl)c(C(=O)O)c1`, the 50% effective concentration (EC50) was 11.3 µM. Turning to `Fc1ccc(Nc2ccc3ccccc3n2)c(F)c1`, the half-maximal effective concentration (EC50) is 0.698 µM. In the case of `CCc1ccc(C(=O)COC(=O)c2n[nH]c3ccccc23)cc1`, the half-maximal effective concentration (EC50) is 2.54 µM.

As for `Fc1ccccc1/C=C/c1ccc2ccccc2n1`, the EC50 is 0.319 µM.

Consider `c1cnc(SCCOc2ccc3c(c2)CCC3)nc1`, for which the EC50 is 8.8 µM. Then `O=C(O)c1cc(N/N=C/c2ccc3c(c2)OCCO3)ccc1Cl`, with 26.5 µM; and `COc1ccc(/C=N/Nc2cc(OC)ncn2)cc1`, with 0.341 µM; and `Nc1cccn2c(-c3ccc(Cl)cc3)cnc12`, with 3.63 µM. For the compound `O=C(c1ccccc1)n1ccc(-c2cnc(-c3ccccc3)s2)n1`, the EC50 is 1.49 µM. Then `CC(C)(C)c1ccc(C(=O)/C=C2\NC(=O)CS2)cc1`, with 1.14 µM. With `O=C(Nc1ccc(N2CCCC2)c(Cl)c1)c1ccco1`, the EC50 is 1.68 µM. Then `Cc1cccnc1NCc1ccc(O)c2ncccc12`, with 7.65 µM.

Regarding `Cc1ccc(Nc2nc(-c3ccc(O)c(O)c3)cs2)nc1`, the 50% effective concentration (EC50) was 6.73 µM. `CC1CC1C(=O)OCC(=O)Nc1ccc(N=Nc2ccccc2)cc1` (centres undefined): the concentration giving a half-maximal response (EC50) is 15.4 µM. On to `Oc1ccc(F)cc1-c1cc(-c2ccc3c(c2)OCCO3)n[nH]1`, for which the EC50 is 1.01 µM.

For `O=C(Nc1ccc2c(c1)OCCO2)c1cc2ccccc2o1`, the concentration for a half-maximal effect (EC50) was 1.12 µM. In the case of `CCOC(=O)c1sc(NC(=O)c2sccc2C)cc1C`, the EC50 was 0.952 µM. `NC(=O)c1ccccc1N/C=C/C(=O)c1cccs1`: the half-maximal effective concentration (EC50) was 4.95 µM. The figure for `Cc1ccc(C(=O)/C=C/Nc2cccc(O)c2)cc1` is 0.559 µM.

As for `N#C/C(=N\Nc1ccc(F)cc1)C(=N)N1CCCCCC1`, the 50% effective concentration (EC50) was 2.17 µM. The figure for `Cc1ccc2nc3cc([N+](=O)[O-])cc([N+](=O)[O-])c3cc2c1` is 1.19 µM; for `CCOC(=O)c1c(N)sc(C(=O)Nc2ccc3c(c2)OCO3)c1C` it is 0.871 µM. Consider `N/C(=N\OC(=O)COc1ccc(Cl)cc1Cl)c1ccccn1`, for which the EC50 is 1.19 µM. Take `COc1ccc(C(=O)N=c2sc3ccccc3n2C)cc1`: the EC50 was 6.41 µM. For the compound `CN(c1ccc(O)cc1)c1nc(-c2ccccc2)cs1`, the EC50 was 1.02 µM. Regarding `Oc1ccccc1-c1cc(-c2cccc(F)c2)n[nH]1`, the EC50 is 7.73 µM.

As for `O=C(Nc1ccc2sccc2c1)c1ccc(Cl)s1`, the EC50 was 0.511 µM. Regarding `Cc1ccc(C(=O)Nc2nc3c(s2)CCCC3)o1`, the EC50 is 1.78 µM. The figure for `COc1cccc(N(C(=O)c2nc3nccc(C)n3n2)c2nc3ccccc3s2)c1` is 7.22 µM; for `COc1cc(/C=N/Nc2nc3ccccc3s2)ccc1OC(=O)c1ccccc1F` it is 1.42 µM. The figure for `O=C(Nc1ccc(OC(F)F)c(Cl)c1)c1ccccn1` is 6.28 µM. Regarding `COCCNc1nc(-c2cc3ccccc3o2)cs1`, the EC50 was 1.4 µM. On to `Cc1ccccc1Nc1nnc(SCC2CCCCO2)s1` (centres undefined), for which the EC50 was 5.76 µM.

With `Cc1cccn2cc(-c3ccc(F)cc3)nc12`, the EC50 is 1.86 µM. In the case of `Cc1c(-c2nc(N)nc(Nc3ccccc3F)n2)oc2ccccc12`, the half-maximal effective concentration (EC50) was 2.02 µM. The figure for `Cn1cccc1/C=C1\CCC/C(=C\c2cccn2C)C1=O` is 8.63 µM; for `COc1ccc2c(=O)c(-c3nc(C)cs3)coc2c1` it is 1.08 µM; for `c1ccc2c(c1)CCN(c1nc3cc4c(cc3s1)OCO4)C2` it is 0.524 µM.

On to `O=C(OCC(=O)c1cccs1)c1ccccc1`, for which the EC50 was 12.6 µM. Then `COc1cc(/C=N/N(C)c2ccccc2)ccc1O`, with 2.64 µM; and `O=C(Nc1nc2c(s1)CCCC2)c1ccc(Br)o1`, with 1.29 µM; and `Cc1cccc(NC(=O)c2cnc3sccn3c2=O)c1`, with 0.998 µM. Regarding `Cc1cc(C)c[n+](-c2nc3ccccc3nc2C(=C=[N-])C#N)c1`, the EC50 was 28 µM. On to `CCOc1ccc2nc(NC(=O)Nc3cccs3)sc2c1`, for which the concentration giving a half-maximal response (EC50) is 1.68 µM. For the compound `NS(=O)(=O)c1cc(C(=O)OCC(=O)c2ccc3c(c2)OCCO3)ccc1Cl`, the EC50 is 3.47 µM. In the case of `O=C(c1cccs1)c1ccc(-c2cccs2)s1`, the concentration giving a half-maximal response (EC50) was 0.623 µM. Regarding `COc1ccc(-c2nc(-c3ccc(Br)cc3)no2)c(OC)c1`, the EC50 is 2.56 µM. The figure for `Cc1ccc(OCCSc2ncccn2)c(C)c1` is 5.42 µM. `COc1ccc(-c2csc(N3C(=O)CNC3=S)n2)cc1`: the EC50 is 0.935 µM. Consider `CCN(CC)c1ccc(/C=N/NC(=S)NC)c(O)c1`, for which the EC50 is 1.98 µM. On to `CN1/C(=C/C(=O)c2cccs2)Sc2ccccc21`, for which the EC50 was 0.685 µM. The figure for `O=C(/C=C/Nc1ccc(F)c(F)c1)c1ccc(Br)cc1` is 3.91 µM; for `COc1cccc(/C=C/C(=O)Nc2ccc3c(c2)OCCO3)c1` it is 3.94 µM.

With `O=C(Nc1ccc2c(c1)OCO2)c1ccc(Cl)s1`, the concentration giving a half-maximal response (EC50) is 1.8 µM. On to `O=[N+]([O-])c1ccccc1OCc1nc(-c2cccs2)no1`, for which the EC50 is 1.73 µM. As to `CSc1ccc(/C=C/C(=O)Nc2ccccc2)cc1`, the concentration for a half-maximal effect (EC50) is 0.242 µM. Consider `COc1cccc(C(=O)/C=C/Nc2cccc(O)c2)c1`, for which the EC50 is 1.29 µM. In the case of `Cc1cc(NC(=O)Nc2ccccc2F)ccc1Br`, the EC50 was 4.35 µM. Then `Cc1ccc(N=Nc2c(N)nn(-c3ccccc3)c2N)cc1`, with 10 µM; and `COc1cccc(N/C=C/C(=O)c2ccc(Cl)cc2)c1`, with 0.652 µM; and `Cc1ccc2nc(-c3ccc(NC(=O)COC(=O)c4ccc(Br)o4)cc3)sc2c1`, with 0.485 µM. Take `CCOC(=O)c1sc2nc(-c3cccnc3)ccc2c1N`: the EC50 was 1.35 µM.

As for `CCN(CC)S(=O)(=O)c1cc(C(=O)OCC(=O)Nc2ccc(-c3nc4ccc(C)cc4s3)cc2)ccc1F`, the EC50 was 0.516 µM. Take `Nc1ccc2nc(SCc3cccc(F)c3)sc2c1`: the concentration giving a half-maximal response (EC50) was 3.68 µM. For the compound `Nc1nc(-c2ccc(-c3ccccc3)cc2)cs1`, the EC50 was 2.42 µM. In the case of `CCOC(=O)CSc1nc2cc(OC)ccc2cc1C#N`, the 50% effective concentration (EC50) was 0.144 µM. On to `Cc1ccc(NC(=O)N2CCC(c3ccccc3)C2)cc1C` (centres undefined), for which the EC50 was 5.3 µM. The figure for `COc1ccc(-n2ncc3c(NCC(C)C)ncnc32)cc1` is 1.19 µM; for `CN(c1ccccc1)c1ccc(/C=N/N2CCOCC2)cc1` it is 6.77 µM; for `CC(=O)c1sc(N/N=C\c2ccccc2O)nc1C` it is 5.53 µM.

`Cc1ccc(Nc2nc(C3CC3)cs2)cc1`: the half-maximal effective concentration (EC50) was 1.82 µM.

Consider `C=CCNc1nc(-c2ccc(Cl)cc2)cs1`, for which the EC50 is 11.1 µM.
